Reference: US20190046600A1, “COMPOSITIONS AND USES THEREOF” (priority 2016, published 2019)
Square brackets hold non-standard residues; d marks the D form. Ends that are not written are not given here. Peptide text beside a SMILES is read from it. Phe(4-guanidino) = N=C(N)Nc1ccc(C[C@H](N)C(=O)O)cc1; Abu(4-SO3H) = N[C@@H](CCS(=O)(=O)O)C(=O)O

Key:
[1] = system: NCI-H460 human non-small cell lung cancer cells; conditions: amphiphilic backbones of different length and composition; cited from earlier work
human cancer cell lines = conditions: cited from earlier work; for bio-activity of cyclic peptide (active / inactive): PRGPRP warhead combined with non-amphiphilic backbone
[2] = system: NCI H460 Human Non-small cell lung cancer; test: Light microscopy of treated cell cultures; assay type: cell-based; conditions: versus DMSO control
Procedure: To investigate further the mechanism of action of the anionic warhead, cultures of NCI H460 Human Non-small cell lung cancer were exposed to HILR-025 and HILR-D-07 and observed using light microscopy. A comparative cell culture was treated with DMSO to provide a negative control.

[3] = system: NCI-H460 human non-small-cell lung cancer cells; test: Cell survival with or without 2-deoxyglucose, alamarBlue; assay type: cell-based; conditions: combination with 3.125 mmol 2-DOG versus alone
From the text: Since the compounds according to the invention appeared to be causing cell death by necrosis as a result of NAD/ATP depletion, it was hypothesised that their activity could be potentiated by administering the compounds with a glycolysis inhibitor. The cell killing ability of HILR-025 (SEQ ID NO: 15) and HILR-D-07 sodium salt (SEQ ID NO: 30) in the presence and absence of the glycolysis inhibitor 2-deoxyglucose (2-DOG) was therefore assayed.
NCI-H460 human non-small-cell lung cancer cells were contacted with HILR-025 or HILR-D-07 alone or in combination with 3.125 mmol 2-DOG and cell survival was determined using AlamaBlue® cell viability reagent (Life Technologies, Inc.) in accordance with the manufacturer's instructions.

NCI-H460 cells [4] = conditions: 96 h
Procedure: Methods measuring cell viability include the use of alamarBlue® cell viability reagent (Life Technologies, Inc.) (resazurin) with fluorescence detection.
1) NCI-H460 cells were grown in Ham's F12 media supplemented with 10% FBS. 2) Cells were harvested and seeded into 96-well plates at 500 cells/well. 3) Compounds were made up from stock solutions and added directly to cells in doubling dilutions starting at 200 μM. Final DMSO concentration was 0.2%. 4) Cells were grown with compound for 96 hours at 37° C. 5% CO2 in a humidified atmosphere. 5) A resazurin dye composition (AlamarBlue® cell viability reagent (Life Technologies, Inc.)) 10% (v/v) was then added and incubated for a further 4 hours, and fluorescent product detected using the BMG FLUOstar plate reader. 6) Media only background readings were subtracted before data were analysed using a 4-parameter logistic equation in GraphPad Prism.

NCI-H460 cells [5] = test: HILR-001 with or without 30 nM Olaparib on NCI-H460, alamarBlue and CellTiter-Glo time course; assay type: cell-based, human; conditions: HILR-001 as single agent, particularly evident at later time points
Procedure: At each time point cell viability was measured by two assay readouts, alamarBlue® and CellTiter-Glo. Conversion of alamarBlue® to a fluorescent product serves as a readout of the metabolic activity of cells, whereas CellTiter-Glo is based on quantification of the ATP present.
2) Cells were harvested and seeded into 96-well plates at 500 cells/well. 3) HILR-001 was made up from a 10 mM stock solution and added directly to cells in doubling dilutions starting at 200 μM. […] The total final DMSO concentration was 0.25%. 4) Cells were grown with compound for 24, 48, 72 or 96 hours at 37° C. 5% CO2 in a humidified atmosphere. 5) AlamarBlue® 10% (v/v) was then added and incubated for a further 4 hours, and fluorescent product detected using the BMG FLUOstar plate reader. 6) On duplicate plates the media was removed from the cells, CellTiter-Glo was diluted in PBS (1:10) and 100 μl added to the cells. 7) Plates were mixed on an orbital shaker for 2 minutes and incubated for a further 10 minutes at room temperature. Luminescent signal was then measured using the BMG FLUOstar plate reader.

Cyc-[PRGPRPVKLALKLALKFP] (cyclic; cyclic peptide; (1)..(18) cyclic peptide) [THR53]
killing NCI-H460 cells (active / inactive) [1]: ACTIVE
selective killing of human cancer cell lines (human cancer cell lines): selectively killed a wide range of human cancer cell lines

Cyc-[AAAGGGPRGPRPGGGAAA] (cyclic; Cyclic peptide; (1)..(18) cyclic peptide) [SEQ ID NO: 6]
bio-activity of cyclic peptide (active / inactive) (human cancer cell lines): SEQ ID NO: 6: Cyc-[AAAGGGPRGPRPGGGAAA]INACTIVE

cyclo-[Pro-Hca-Gly-Pro-Hca-Pro-Val-Trp-Trp-Gpa-Gpa-Trp-Trp-Gpa-Gpa-Trp-Trp] (cyclo(P[Abu(4-SO3H)]GP[Abu(4-SO3H)]PVWW[Phe(4-guanidino)][Phe(4-guanidino)]WW[Phe(4-guanidino)][Phe(4-guanidino)]WW); SMILES CC(C)[C@@H]1NC(=O)[C@@H]2CCCN2C(=O)[C@H](CCS(=O)(=O)O)NC(=O)[C@@H]2CCCN2C(=O)CNC(=O)[C@H](CCS(=O)(=O)O)NC(=O)[C@@H]2CCCN2C(=O)[C@H](Cc2c[nH]c3ccccc23)NC(=O)[C@H](Cc2c[nH]c3ccccc23)NC(=O)[C@H](Cc2ccc(NC(=N)N)cc2)NC(=O)[C@H](Cc2ccc(NC(=N)N)cc2)NC(=O)[C@H](Cc2c[nH]c3ccccc23)NC(=O)[C@H](Cc2c[nH]c3ccccc23)NC(=O)[C@H](Cc2ccc(NC(=N)N)cc2)NC(=O)[C@H](Cc2ccc(NC(=N)N)cc2)NC(=O)[C@H](Cc2c[nH]c3ccccc23)NC(=O)[C@H](Cc2c[nH]c3ccccc23)NC1=O) [HILR-D-07]
cell morphology [2]: Ring-shaped morphology
cell killing ability with 2-DOG [3]: enhanced by co-administration with 2-DOG

Cyc-[GGGGGGPRGPRPGGGGGG] [SEQ ID NO: 8] (cyclic; cyclic peptide; (1)..(18) cyclic peptide)
bio-activity of cyclic peptide (active / inactive) (human cancer cell lines): SEQ ID NO: 8: Cyc-[GGGGGGPRGPRPGGGGGG]INACTIVE

Cyc-[PRGPRPvalklalkalal] [THR79]
selective killing of human cancer cell lines (human cancer cell lines): selectively killed a wide range of human cancer cell lines

-Pro-Glu-Gly-Pro-Glu-Pro- (PEGPEP; not fully specified; printed as -Pro-Glu-Gly-Pro-Glu-Pro-) [anionic hexapeptide, comparative peptide]
activity of anionic hexapeptide (human cancer cell lines; linear hexapeptide, earlier study): inactive

Cyc-[AAGPGGPRGPRPGGPGAA] (cyclic; cyclic peptide; (1)..(18) cyclic peptide) [SEQ ID NO: 9]
bio-activity of cyclic peptide (active / inactive) (human cancer cell lines): SEQ ID NO: 9: Cyc-[AAGPGGPRGPRPGGPGAA]INACTIVE

CC(C)[C@@H]1NC(=O)[C@@H]2CCCN2C(=O)[C@H](CCC(=O)O)NC(=O)[C@@H]2CCCN2C(=O)CNC(=O)[C@H](CCC(=O)O)NC(=O)[C@@H]2CCCN2C(=O)[C@H](Cc2c[nH]c3ccccc23)NC(=O)[C@H](Cc2c[nH]c3ccccc23)NC(=O)[C@H](CCCNC(=N)N)NC(=O)[C@H](CCCNC(=N)N)NC(=O)[C@H](Cc2c[nH]c3ccccc23)NC(=O)[C@H](Cc2c[nH]c3ccccc23)NC(=O)[C@H](CCCNC(=N)N)NC(=O)[C@H](CCCNC(=N)N)NC(=O)[C@H](Cc2c[nH]c3ccccc23)NC(=O)[C@H](Cc2c[nH]c3ccccc23)NC1=O [HILR-D-02] (cyclo(PEGPEPVWWRRWWRRWW))
IC50 (NCI-H460 cells [4]): 38 µM

Cyc-[PRGPRPVKLALKLALKLAL] (cyclic; cyclic peptide; (1)..(19) cyclic peptide) [THR52]
killing NCI-H460 cells (active / inactive) [1]: INACTIVE

CC(C)[C@@H]1NC(=O)[C@@H]2CCCN2C(=O)[C@H](CCS(=O)(=O)O)NC(=O)[C@@H]2CCCN2C(=O)CNC(=O)[C@H](CCS(=O)(=O)O)NC(=O)[C@@H]2CCCN2C(=O)[C@H](Cc2c[nH]c3ccccc23)NC(=O)[C@H](Cc2c[nH]c3ccccc23)NC(=O)[C@H](CCCNC(=N)N)NC(=O)[C@H](CCCNC(=N)N)NC(=O)[C@H](Cc2c[nH]c3ccccc23)NC(=O)[C@H](Cc2c[nH]c3ccccc23)NC(=O)[C@H](CCCNC(=N)N)NC(=O)[C@H](CCCNC(=N)N)NC(=O)[C@H](Cc2c[nH]c3ccccc23)NC(=O)[C@H](Cc2c[nH]c3ccccc23)NC1=O [HILR-D-06] (cyclo(P[Abu(4-SO3H)]GP[Abu(4-SO3H)]PVWWRRWWRRWW))
IC50 (NCI-H460 cells [4]): 25 µM

CC(C)C[C@@H]1NC(=O)[C@H](C)NC(=O)[C@H](C(C)C)NC(=O)[C@@H]2CCCN2C(=O)[C@H](CCCNC(=N)N)NC(=O)[C@@H]2CCCN2C(=O)CNC(=O)[C@H](CCCNC(=N)N)NC(=O)[C@@H]2CCCN2C(=O)[C@H](CC(C)C)NC(=O)[C@H](C)NC(=O)[C@H](CC(C)C)NC(=O)[C@H](CCCCN)NC(=O)[C@H](CC(C)C)NC(=O)[C@H](C)NC(=O)[C@H](CC(C)C)NC(=O)[C@H](CCCCN)NC1=O [HILR-001] (cyclo(PRGPRPVALKLALKLAL))
killing NCI-H460 cells (active / inactive) [1]: ACTIVE
metabolic activity (alamarBlue) (NCI-H460 cells [5]): dose dependent decrease
selective killing of human cancer cell lines (human cancer cell lines): selectively killed a wide range of human cancer cell lines
IC50 (NCI-H460 cells [4]): 98 µM

Cyc-[GGGGGGPRGPRPGGGGGG] [SEQ ID NO: 7] (cyclic; cyclic peptide; (1)..(18) cyclic peptide)
bio-activity of cyclic peptide (active / inactive) (human cancer cell lines): SEQ ID NO: 7: Cyc-[GGGGGGPRGPRPGGGGGG]INACTIVE
